Some results are limits rather than exact numbers.

In the first test the target is T1, human EP2 (PTGER2) (Homo sapiens, UniProt P43116).
T1 construct: Cayman Chemical (Human EP2 Reporter Assay Kit)
T1 sequence (P43116 whole entry): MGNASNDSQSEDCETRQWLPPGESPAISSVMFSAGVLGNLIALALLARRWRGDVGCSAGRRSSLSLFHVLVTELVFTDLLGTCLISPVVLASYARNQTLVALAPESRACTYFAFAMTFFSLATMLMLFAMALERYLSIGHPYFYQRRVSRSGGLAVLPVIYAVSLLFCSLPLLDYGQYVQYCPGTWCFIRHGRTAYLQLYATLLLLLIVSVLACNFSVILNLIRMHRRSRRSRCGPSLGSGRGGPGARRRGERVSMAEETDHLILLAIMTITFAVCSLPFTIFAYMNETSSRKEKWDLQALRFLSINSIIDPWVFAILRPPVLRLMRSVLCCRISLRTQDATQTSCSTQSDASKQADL
As to the kind of experiment: EP2 antagonist assay (HEK-293 CNG membrane potential cAMP assay / 293T SEAP reporter assay, PGE2-stimulated). It counts as cell-based. The settings on record: EP2 antagonist activity; concentration for 50% inhibition of signal compared to DMSO. Put shortly:
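Two formats. In a CRE-SEAP reporter assay, reverse-transfected 293T cells received compound with PGE2 (13 nM final) for 6-8 h, then luminescence was read. In the ACTOne CNG format, HEK-293 cells were preincubated with compound for 15 min at RT, stimulated with 5 nM PGE2 for 30 min, and read by membrane-potential dye fluorescence. IC50 was taken versus DMSO.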
The molecule `C[C@H](NC(=O)c1cc(-c2cccc(C#N)c2)cc2ccn(Cc3ccc(C(F)(F)F)cc3)c12)c1ccc(C(=O)O)cc1` [Example 52, (S)-4-(1-(5-(3-cyanophenyl)-1-(4-(trifluoromethyl)benzyl)-1H-indole-7-carboxamido)ethyl) benzoic acid] returned a concentration for half-maximal inhibition (IC50) below 0.1 µM. Still for that read-out and setting: the value for `Cn1cc(Sc2ccc(C(F)(F)F)cc2)c2c(C(=O)NCc3ccc(C(=O)O)cc3)cc(-c3cccc(C#N)c3)cc21` [Example 120, 4-((6-(3-cyanophenyl)-1-methyl-3-((4-(trifluoromethyl)phenyl)thio)-1H-indole-4-carboxamido)methyl)benzoic acid] was 0.1 to 1 µM; that for `C[C@H](NC(=O)c1cc(-c2cc(F)cc(F)c2)cc2ccn(Cc3ccc(-c4ccc(F)cc4)cc3)c12)c1ccc(C(=O)O)cc1` [Example 214, (S)-4-(1-(5-(3,5-difluorophenyl)-1-((4′-fluoro-[1,1′-biphenyl]-4-yl)methyl)-1H-indole-7-carboxamido)ethyl)benzoic acid] was below 0.1 µM. The same measure, in the same setting: the value for `O=C(O)c1ccc(CNC(=O)c2cc(-c3cc(F)cc(Cl)c3)cc3ccn(Cc4ccc(C(F)(F)F)cc4)c23)cc1` [Example 95, 4-((5-(3-chloro-5-fluorophenyl)-1-(4-(trifluoromethyl)benzyl)-1H-indole-7-carboxamido)methyl)benzoic acid] was below 0.1 µM; that for `O=C(O)c1ccc(CNC(=O)c2cc(-c3cc(F)cc(C(F)(F)F)c3)cc3ccn(Cc4ccc(C(F)(F)F)cc4)c23)cc1` [Example 11, 4-((5-(3-fluoro-5-(trifluoromethyl)phenyl)-1-(4-(trifluoromethyl)benzyl)-1H-indole-7-carboxamido)methyl)benzoic acid] was below 0.1 µM.

In turn, `O=C(O)c1ccc(C2(NC(=O)c3ccc(Nc4cc(F)cc(F)c4)c4ccn(Cc5ccc(C(F)(F)F)cc5)c34)CC2)cc1` [Example 66, 4-(1-(4-((3,5-difluorophenyl)amino)-1-(4-(trifluoromethyl)benzyl)-1H-indole-7-carboxamido)cyclopropyl)benzoic acid] returned an IC50 of 0.1 to 1 µM.

In turn, `C[C@H](NC(=O)c1cc(-c2ccc(F)cc2)cc2cnn(Cc3ccc(-c4ccc(F)cc4)cc3)c12)c1ccc(C(=O)O)cc1` [Example 203, (S)-4-(1-(1-((4′-fluoro-[1,1′-biphenyl]-4-yl)methyl)-5-(4-fluorophenyl)-1H-indazole-7-carboxamido)ethyl)benzoic acid] came in with a half-maximal inhibitory concentration (IC50) below 0.1 µM. Still for that read-out and setting: the value for `O=C(O)c1ccc(CNC(=O)c2ccc(-c3cc(F)cc(C(F)(F)F)c3)c3ccn(Cc4ccc(C(F)(F)F)cc4)c23)cc1` [Example 28, 4-((4-(3-fluoro-5-(trifluoromethyl)phenyl)-1-(4-(trifluoromethyl)benzyl)-1H-indole-7-carboxamido)methyl)benzoic acid] was at least 1 µM.

`O=C(O)c1ccc(CNC(=O)c2cc(Nc3ccccc3)cc3ccn(Cc4ccc(C(F)(F)F)cc4)c23)cc1` [Example 47, 4-((5-(phenylamino)-1-(4-(trifluoromethyl)benzyl)-1H-indole-7-carboxamido)methyl)benzoic acid] registered a concentration for half-maximal inhibition (IC50) of at least 1 µM.

On to `O=C(O)c1ccc(CNC(=O)c2cc(-c3cc(F)cc(F)c3)cc3ccn(Cc4cccc(C(F)(F)F)c4)c23)cc1` [Example 125, 4-((5-(3,5-difluorophenyl)-1-(3-(trifluoromethyl)benzyl)-1H-indole-7-carboxamido)methyl)benzoic acid], for which the concentration for half-maximal inhibition (IC50) was below 0.1 µM.

The molecule `CC(c1ccc(C(F)(F)F)cc1)n1ccc2cc(-c3ccccc3)cc(C(=O)NCc3ccc(C(=O)O)cc3)c21` (racemic) [Example 178, (±) 4-((5-phenyl-1-(1-(4-(trifluoromethyl)phenyl)ethyl)-1H-indole-7-carboxamido)methyl)benzoic acid] displayed an IC50 below 0.1 µM. Consider `N#Cc1cccc(Nc2ccc(C(=O)NC3(c4ccc(C(=O)O)cc4)CC3)c3c2ccn3Cc2ccc(C(F)(F)F)cc2)c1` [Example 61, 4-(1-(4-((3-cyanophenyl)amino)-1-(4-(trifluoromethyl)benzyl)-1H-indole-7-carboxamido)cyclopropyl)benzoic acid], for which the IC50 lay in the range of 0.1 to 1 µM. The same measure, in the same setting: the value for `C[C@H](NC(=O)c1cc(-c2ccccc2)cc2cnn(Cc3ccc(-c4ccccc4)cc3)c12)c1ccc(C(=O)O)cc1` [Example 198, (S)-4-(1-(1-([1,1′-biphenyl]-4-ylmethyl)-5-phenyl-1H-indazole-7-carboxamido)ethyl)benzoic acid] was below 0.1 µM; that for `N#Cc1ccc(-c2cc(C(=O)NCc3ccc(C(=O)O)cc3)c3c(ccn3Cc3ccc(C(F)(F)F)cc3)c2)cc1` [Example 81, 4-((5-(4-cyanophenyl)-1-(4-(trifluoromethyl)benzyl)-1H-indole-7-carboxamido)methyl)benzoic acid] was below 0.1 µM. On the same count and under the same terms, the same measure for `O=C(O)c1ccc(CNC(=O)c2cc(-c3cc(F)cc(F)c3)cc3cnn(Cc4ccc5ccccc5c4)c23)cc1` [Example 157, 4-((5-(3,5-difluorophenyl)-1-(naphthalen-2-ylmethyl)-1H-indazole-7-carboxamido)methyl)benzoic acid]: below 0.1 µM; for `O=C(O)c1ccc(CNC(=O)c2cc(-c3ccc(F)c(F)c3)cc3ccn(Cc4ccc(-c5ccc(F)cc5)cc4)c23)cc1` [Example 211, 4-((5-(3,4-difluorophenyl)-1-((4′-fluoro-[1,1′-biphenyl]-4-yl)methyl)-1H-indole-7-carboxamido)methyl)benzoic acid]: below 0.1 µM; for `O=C(O)c1ccc(C2(NC(=O)c3cc(-c4ccc(F)c(F)c4)cc4ccn(Cc5ccc(C(F)(F)F)cc5)c34)CC2)cc1` [Example 18, 4-(1-(5-(3,4-difluorophenyl)-1-(4-(trifluoromethyl)benzyl)-1H-indole-7-carboxamido)cyclopropyl)benzoic acid]: 0.1 to 1 µM. Still for that read-out and setting: the value for `C[C@@H](NC(=O)c1cc(-c2cc(F)cc(F)c2)cc2ccn(Cc3ccc(C(F)(F)F)cc3)c12)c1ccc(C(=O)O)cc1` [Example 14, (R)-4-(1-(5-(3,5-difluorophenyl)-1-(4-(trifluoromethyl)benzyl)-1H-indole-7-carboxamido)ethyl) benzoic acid] was at least 1 µM; that for “((5-(3-cyano-5-fluorophenyl)-1-(4-(trifluoromethyl)benzyl)-1H-indole-7-carboxamido)methyl)benzoic acid [Example 77]” was below 0.1 µM; that for `C[C@H](NC(=O)c1cc(-c2ccc(F)c(F)c2)cc2ccn(Cc3ccc(C(F)(F)F)cc3)c12)c1ccc(C(=O)O)cc1` [Example 53] was below 0.1 µM. On to `C[C@H](NC(=O)c1cc(-c2ccc(F)cc2)cc2cnn(Cc3ccc(C(F)(F)F)cc3)c12)c1ccc(C(=O)O)cc1` [Example 194, (S)-4-(1-(5-(4-fluorophenyl)-1-(4-(trifluoromethyl)benzyl)-1H-indazole-7-carboxamido)ethyl)benzoic acid], for which the 50% inhibitory concentration (IC50) is below 0.1 µM. Same read-out and setting: the value for `O=C(O)c1ccc(CNC(=O)c2cc(-c3ccc(F)c(F)c3)cc3ccn(Cc4ccc5ccccc5c4)c23)cc1` [Example 216, 4-((5-(3,4-difluorophenyl)-1-(naphthalen-2-ylmethyl)-1H-indole-7-carboxamido)methyl)benzoic acid] was below 0.1 µM. As for `O=C(O)c1ccc(CNC(=O)c2cc(-c3ccccc3)cc3ccn(Cc4cccc(Cl)c4)c23)cc1` [Example 105, 4-((1-(3-chlorobenzyl)-5-phenyl-1H-indole-7-carboxamido)methyl)benzoic acid], the IC50 was below 0.1 µM.

The next test deals with T2, human EP4 (EP4R) (Homo sapiens, UniProt P35408).
T2 construct: Cayman Chemical (Human EP4 Reporter Assay Kit)
T2 sequence (P35408 whole entry): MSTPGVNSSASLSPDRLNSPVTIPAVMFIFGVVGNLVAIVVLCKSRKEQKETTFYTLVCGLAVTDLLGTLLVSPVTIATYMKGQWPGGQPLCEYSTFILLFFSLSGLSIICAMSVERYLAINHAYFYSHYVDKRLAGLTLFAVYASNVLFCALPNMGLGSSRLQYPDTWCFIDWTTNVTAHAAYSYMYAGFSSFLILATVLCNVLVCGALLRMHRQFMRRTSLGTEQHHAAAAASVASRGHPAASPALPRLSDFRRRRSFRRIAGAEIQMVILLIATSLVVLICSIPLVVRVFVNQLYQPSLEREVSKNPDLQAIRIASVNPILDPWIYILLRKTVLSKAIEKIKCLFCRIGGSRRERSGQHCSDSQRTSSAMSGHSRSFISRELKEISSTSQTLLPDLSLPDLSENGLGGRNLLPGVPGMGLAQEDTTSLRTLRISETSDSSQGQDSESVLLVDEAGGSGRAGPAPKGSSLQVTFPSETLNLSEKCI
As to the kind of experiment: EP4 antagonist assay (HEK-293 CNG membrane potential cAMP assay / 293T SEAP reporter assay, PGE2-stimulated). It is filed as cell-based. The settings on record: EP4 antagonist activity; concentration for inhibition of signal compared to DMSO. The source says: 1. The HEK-293 CNG (Cyclic Nucleotide Gated) cell line expressing a modified CNG channel that leads to cell membrane depolarization in response to elevated intracellular cAMP levels, which can be measured using a fluorescent membrane potential dye, was engineered to express human EP2 (PTGER2) or EP4 (EP4R). The resulting cell line ACTOne™ PTGER2 or ACTOne™ EP4R as well as the fluorescent membrane potential dye were purchased from eEnzyme (Gaithersburg, MD, US) and used in this assay. Briefly, cells were plated at 1.2×10^4 cells/well in 20 μL DMEM supplemented with 2% Fetal Bovine Serum (FBS, VWR International), 1x Penicillin/Streptomycin (GenClone), 0.2 μg/mL puromycin (InvivoGen) and 50 μg/mL G418 (InvivoGen) on a 384 well plate (Greiner). The next day, cells were dye-loaded with 20 μL/well of 1x Dye-loading solution (eENZYME) following the manufacturer's instruction. After 2 hours of incubation at room temperature (RT) in the dark, a pre-read was made to obtain the background signals using CLARIOstar plate reader (BMG LABTECH, Germany) with the following filter settings: excitation=530/20 nm, emission=590/20 nm. Next, a serial dilution of compound (plus a DMSO control) were added to the plate (5 μL/well) and the reaction was incubated at RT for 15 min before adding 5 μL of PGE2 to every well for a final concentration of 5 nM. All wells were duplicated. The plate was then further incubated at RT for 30 min prior to a final read with the same machine settings. Background-subtracted signals were used to calculate IC50 values.
2. Human EP2 and EP4 Reporter Assay Kits were purchased from Cayman Chemical (Ann Arbor, MI, USA). The assay was performed following the provided User Manual. Briefly, a reverse transfection was performed by seeding 6.0×10^4 of 293T cells (ATCC) to each well of the provided Strip Plate coated with a proprietary transfection complex containing DNA constructs for expressing human EP2 or EP4 and a cAMP response element regulated secreted alkaline phosphatase (SEAP) reporter, in 200 μL DMEM supplemented with 2% FBS and incubated for 20-24 hours at 37° C. with 5% CO2. After the incubation, the culture medium was carefully removed, and the cells were replenished with 150 μL pre-warmed serum-free medium. PGE2 and test compounds were prepared together at 4x the desired final concentration, and 50 μL was added to each assigned well with the final concentration of 13 nM and 2 nM PGE2 for EP2 and EP4 assay, respectively. After 6-8 hours of incubation, 10 μL media from each well was transferred to corresponding well of a new plate, which was then sealed and incubated at 65° C. for 30 min. The plate was then cooled down to RT and 50 μL SEAP substrate was added to each well. Luminescence signal was measured using a CLARIOstar plate reader.
The IC50 value was determined as the concentration for […] inhibition of signal compared to DMSO (A: IC50≤100 nM; B: IC50 between 100 nM and 1,000 nM; C: IC50≥1,000 nM).
`C[C@H](NC(=O)c1cc(-c2cccc(C#N)c2)cc2ccn(Cc3ccc(C(F)(F)F)cc3)c12)c1ccc(C(=O)O)cc1` [Example 52, (S)-4-(1-(5-(3-cyanophenyl)-1-(4-(trifluoromethyl)benzyl)-1H-indole-7-carboxamido)ethyl) benzoic acid]: the IC50 is at most 0.1 µM.

The values are drawn from patent publication US20250179017A1 (GUANGDONG NEWOPP BIOPHARMACEUTICALS CO., LTD., priority 2022, published 2025).
